Key:
Assay type in all cases: cell-based
GSPT1 = GSPT1 (Homo sapiens, UniProt P15170+Q96SW2); assay: GSPT1 Cellular Degradation Assay (DF15-GSPT1-ePL); design: expressed in transfected cells; conditions: DF15-GSPT1-ePL cells, 20 hours
In short: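 DC50 and Dmax were derived from chemiluminescence, with 75% response set by the reference compound at […]. Readout was ePL enzyme-fragment complementation in a DF15 line expressing chimeric GSPT1. Cells were exposed to compound for 20 h at 37 °C in RPMI 1640 with 10% FBS, cooled 30 min, then lysed with substrate for 60 min.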

Cyclin E1 = Cyclin E1 (Homo sapiens, UniProt P24864+Q96SW2); assay: Cyclin E1 Cellular Degradation Assay (MSD); design: endogenous in cells; host or cells: OVCAR3; conditions: for DC50 / Dmax: Cyclin E1 cellular degradation; for Dmax: maximum degradation; for Ratio of GSPT1 DC50/Cyclin E1 DC50: selectivity for degradation of Cyclin E1 over GSPT1
Cyclin E1, sequence (P24864 whole entry): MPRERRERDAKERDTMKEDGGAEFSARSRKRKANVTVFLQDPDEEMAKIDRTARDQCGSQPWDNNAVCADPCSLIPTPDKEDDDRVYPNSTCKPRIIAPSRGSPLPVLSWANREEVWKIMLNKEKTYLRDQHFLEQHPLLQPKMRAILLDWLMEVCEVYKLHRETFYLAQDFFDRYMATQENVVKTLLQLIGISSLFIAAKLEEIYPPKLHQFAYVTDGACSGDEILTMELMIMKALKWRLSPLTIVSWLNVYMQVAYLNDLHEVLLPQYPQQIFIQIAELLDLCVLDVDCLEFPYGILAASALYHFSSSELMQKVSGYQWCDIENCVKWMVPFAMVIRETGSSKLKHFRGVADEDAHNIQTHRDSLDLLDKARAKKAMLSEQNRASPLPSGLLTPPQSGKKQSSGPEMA
Cyclin E1, sequence (Q96SW2 whole entry): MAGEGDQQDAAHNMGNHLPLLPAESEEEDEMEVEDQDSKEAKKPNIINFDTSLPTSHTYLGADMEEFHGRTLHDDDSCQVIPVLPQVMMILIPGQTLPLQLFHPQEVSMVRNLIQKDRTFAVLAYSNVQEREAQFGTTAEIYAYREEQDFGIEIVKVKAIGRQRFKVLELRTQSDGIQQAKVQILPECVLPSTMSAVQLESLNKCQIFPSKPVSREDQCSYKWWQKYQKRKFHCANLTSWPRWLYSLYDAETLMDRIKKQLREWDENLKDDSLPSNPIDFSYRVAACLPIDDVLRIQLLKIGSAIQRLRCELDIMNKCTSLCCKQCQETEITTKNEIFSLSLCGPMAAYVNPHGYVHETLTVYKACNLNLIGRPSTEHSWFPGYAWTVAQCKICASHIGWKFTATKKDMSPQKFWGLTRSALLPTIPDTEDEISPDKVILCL
Cyclin E1, sequence (Q16531 whole entry partner): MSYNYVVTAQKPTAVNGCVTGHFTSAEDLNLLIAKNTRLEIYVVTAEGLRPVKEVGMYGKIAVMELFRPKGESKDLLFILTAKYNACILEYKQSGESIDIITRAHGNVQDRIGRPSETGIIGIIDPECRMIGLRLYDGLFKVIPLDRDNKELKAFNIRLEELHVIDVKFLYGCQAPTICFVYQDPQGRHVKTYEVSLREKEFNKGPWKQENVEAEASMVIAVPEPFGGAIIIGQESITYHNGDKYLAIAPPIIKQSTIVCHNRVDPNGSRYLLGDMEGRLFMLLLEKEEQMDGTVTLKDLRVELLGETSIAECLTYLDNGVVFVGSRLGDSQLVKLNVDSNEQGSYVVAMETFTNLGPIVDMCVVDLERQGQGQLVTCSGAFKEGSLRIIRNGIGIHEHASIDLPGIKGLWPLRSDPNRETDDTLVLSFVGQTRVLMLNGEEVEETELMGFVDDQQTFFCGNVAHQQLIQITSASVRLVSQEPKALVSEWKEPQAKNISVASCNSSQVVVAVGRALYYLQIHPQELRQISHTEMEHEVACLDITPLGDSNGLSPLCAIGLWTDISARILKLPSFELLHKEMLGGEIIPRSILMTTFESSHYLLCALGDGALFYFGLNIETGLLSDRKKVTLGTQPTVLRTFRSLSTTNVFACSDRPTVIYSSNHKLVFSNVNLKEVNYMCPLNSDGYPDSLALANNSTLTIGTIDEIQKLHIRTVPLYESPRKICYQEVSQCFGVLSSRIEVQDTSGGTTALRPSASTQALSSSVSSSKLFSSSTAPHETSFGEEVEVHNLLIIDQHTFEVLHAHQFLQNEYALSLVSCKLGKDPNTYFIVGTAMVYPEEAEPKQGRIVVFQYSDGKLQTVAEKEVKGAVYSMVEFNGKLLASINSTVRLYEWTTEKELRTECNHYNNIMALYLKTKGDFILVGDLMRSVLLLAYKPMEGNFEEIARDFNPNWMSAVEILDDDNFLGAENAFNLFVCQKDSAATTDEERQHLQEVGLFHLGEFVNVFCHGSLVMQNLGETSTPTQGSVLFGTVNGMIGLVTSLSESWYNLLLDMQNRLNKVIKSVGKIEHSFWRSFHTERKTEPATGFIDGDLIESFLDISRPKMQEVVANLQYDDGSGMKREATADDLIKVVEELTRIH
In short: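 Cyclin E1 remaining after 24 h compound exposure of OVCAR3 cells was quantified in lysates by electrochemiluminescent MSD sandwich assay. DC50 (50% response concentration) and Dmax (maximum response) were calculated, with 110% response set by a reference compound at […].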

Phospho-Rb (Ser807/811) = assay: Phospho-Retinoblastoma (pRB) Cellular Assay; conditions: Homo sapiens, OVCAR-3, NIH OVCAR3 cells, 24 hours; for IC50: concentration giving 50% response; for Emax: maximum response, reference compound at 10 μM = 100%, read-out: pRB Ymax
In short: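 Phospho-Rb (Ser807/811) kit read-out on EnVision after lysis (≥4 h, room temperature, dark) of OVCAR3 cells exposed to compound dilutions for 24 h. IC50 and maximum response Ymax are relative to a 10 μM reference compound defining 100%.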

GSPT1, sequence (P15170 whole entry, the tested form may be a part): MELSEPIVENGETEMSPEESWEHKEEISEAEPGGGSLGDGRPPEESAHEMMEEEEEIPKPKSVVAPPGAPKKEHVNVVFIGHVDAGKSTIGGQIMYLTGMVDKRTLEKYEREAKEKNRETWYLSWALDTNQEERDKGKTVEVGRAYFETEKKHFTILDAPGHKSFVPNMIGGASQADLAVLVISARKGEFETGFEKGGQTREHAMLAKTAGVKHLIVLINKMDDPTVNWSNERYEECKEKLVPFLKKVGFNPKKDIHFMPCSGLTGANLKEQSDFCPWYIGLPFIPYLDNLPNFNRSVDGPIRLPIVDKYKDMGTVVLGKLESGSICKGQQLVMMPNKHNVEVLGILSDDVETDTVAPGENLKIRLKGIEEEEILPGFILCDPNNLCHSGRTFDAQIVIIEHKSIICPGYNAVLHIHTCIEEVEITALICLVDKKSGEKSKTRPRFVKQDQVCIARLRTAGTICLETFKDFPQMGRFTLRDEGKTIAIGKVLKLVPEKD
GSPT1, sequence (Q96SW2 whole entry, the tested form may be a part): as the sequence (Q96SW2 whole entry) above
GSPT1, sequence (Q16531 whole entry partner, the tested form may be a part): as the sequence (Q16531 whole entry partner) above

SMILES	DC50 (GSPT1)	Dmax (GSPT1)	DC50 (Cyclin E1)	Dmax (Cyclin E1)	Ratio of GSPT1 DC50/Cyclin E1 DC50 (Cyclin E1)	IC50 (Phospho-Rb (Ser807/811))	Emax (Phospho-Rb (Ser807/811))
COc1c(COC(=O)Nc2ccc(Oc3cc(Cl)cc(Cl)c3)cc2F)ccc2c1C(=O)N(C1CCC(=O)NC1=O)C2 (centres unmarked) [Example 118, [2-(2,6-dioxopiperidin-3-yl)-4-methoxy-3-oxo-2,3-dihydro-1H-isoindol-5-yl]methyl N-[4-(3,5-dichlorophenoxy)-2-fluorophenyl]carbamate]	> 14000 nM	24%	417 nM	96%	>34	299 nM	105%
CC(C)Oc1c(COC(=O)Nc2ccc(Oc3ccc(F)c(F)c3)cc2F)ccc2c1C(=O)N(C1CCC(=O)NC1=O)C2 (centres unmarked) [Example 119, [2-(2,6-dioxopiperidin-3-yl)-3-oxo-4-(propan-2-yloxy)-2,3-dihydro-1H-isoindol-5-yl]methyl N-[4-(3,4-difluorophenoxy)-2-fluorophenyl]carbamate]	> 14000 nM	10%	116 nM	107%	>120	54 nM	111%
CC(C)Oc1c(COC(=O)Nc2ccc(Oc3cccc(F)c3F)cc2)ccc2c1C(=O)N(C1CCC(=O)NC1=O)C2 (centres unmarked) [Example 120, [2-(2,6-dioxopiperidin-3-yl)-3-oxo-4-(propan-2-yloxy)-2,3-dihydro-1H-isoindol-5-yl]methyl N-[4-(2,3-difluorophenoxy)phenyl]carbamate]	> 14000 nM	6%	148 nM	108%	>95	55 nM	121%
CC(C)Oc1c(COC(=O)Nc2ccc(Oc3ccccc3F)cc2)ccc2c1C(=O)N(C1CCC(=O)NC1=O)C2 (centres unmarked) [Example 121, [2-(2,6-dioxopiperidin-3-yl)-3-oxo-4-(propan-2-yloxy)-2,3-dihydro-1H-isoindol-5-yl]methyl N-[4-(2-fluorophenoxy)phenyl]carbamate]	> 14000 nM	9%	53 nM	107%	>263	40 nM	125%
CC(C)Oc1c(COC(=O)Nc2ccc(Oc3ccccc3Cl)cc2)ccc2c1C(=O)N(C1CCC(=O)NC1=O)C2 (centres unmarked) [Example 122, [2-(2,6-dioxopiperidin-3-yl)-3-oxo-4-(propan-2-yloxy)-2,3-dihydro-1H-isoindol-5-yl]methyl N-[4-(2-chlorophenoxy)phenyl]carbamate]	> 14000 nM	16%	61 nM	106%	>230	54 nM	122%
CC(C)Oc1c(COC(=O)Nc2ccc(Oc3cccc(F)c3)cc2)ccc2c1C(=O)N(C1CCC(=O)NC1=O)C2 (centres unmarked) [Example 123, [2-(2,6-dioxopiperidin-3-yl)-3-oxo-4-(propan-2-yloxy)-2,3-dihydro-1H-isoindol-5-yl]methyl N-[4-(3-fluorophenoxy)phenyl]carbamate]	> 14000 nM	4%	131 nM	107%	>107	110 nM	121%
CC(C)Oc1c(COC(=O)Nc2ccc(Oc3ccc(F)cc3Cl)cc2)ccc2c1C(=O)N(C1CCC(=O)NC1=O)C2 (centres unmarked) [Example 124, [2-(2,6-dioxopiperidin-3-yl)-3-oxo-4-(propan-2-yloxy)-2,3-dihydro-1H-isoindol-5-yl]methyl N-[4-(2-chloro-4-fluorophenoxy)phenyl]carbamate]	> 14000 nM	15%	195 nM	103%	>72	163 nM	121%
O=C1CCC(N2Cc3ccc(COC(=O)Nc4ccc(Oc5ccc(F)c(F)c5)cc4)c(OC4CCC4)c3C2=O)C(=O)N1 (centres unmarked) [Example 126, [4-cyclobutoxy-2-(2,6-dioxopiperidin-3-yl)-3-oxo-2,3-dihydro-1H-isoindol-5-yl]methyl N-[4-(3,4-difluorophenoxy)phenyl]carbamate]	> 14000 nM	9%	140 nM	107%	>100	117 nM	129%
O=C1CCC(N2Cc3ccc(COC(=O)Nc4ccc(Oc5ccccc5Cl)cc4)c(OC4CCC4)c3C2=O)C(=O)N1 (centres unmarked) [Example 127, [4-cyclobutoxy-2-(2,6-dioxopiperidin-3-yl)-3-oxo-2,3-dihydro-1H-isoindol-5-yl]methyl N-[4-(2-chlorophenoxy)phenyl]carbamate]	> 14000 nM	8%	126 nM	105%	>111	48 nM	121%
O=C1CCC(N2Cc3ccc(COC(=O)Nc4ccc(Oc5ccc(F)cc5Cl)cc4)c(OC4CCC4)c3C2=O)C(=O)N1 (centres unmarked) [Example 128, [4-cyclobutoxy-2-(2,6-dioxopiperidin-3-yl)-3-oxo-2,3-dihydro-1H-isoindol-5-yl]methyl N-[4-(2-chloro-4-fluorophenoxy)phenyl]carbamate]	> 14000 nM	10%	101 nM	106%	>139	136 nM	124%
O=C1CCC(N2Cc3ccc(COC(=O)Nc4ccc(Oc5ccc(F)c(F)c5)cc4)c(OC4COC4)c3C2=O)C(=O)N1 (centres unmarked) [Example 129, [2-(2,6-dioxopiperidin-3-yl)-4-(oxetan-3-yloxy)-3-oxo-2,3-dihydro-1H-isoindol-5-yl]methyl N-[4-(3,4-difluorophenoxy)phenyl]carbamate]	> 14000 nM	19%	221 nM	107%	>63	187 nM	117%
O=C1CCC(N2Cc3ccc(COC(=O)Nc4ccc(Oc5ccc(F)c(F)c5)cc4)c(OC4CCOCC4)c3C2=O)C(=O)N1 (centres unmarked) [Example 130, [2-(2,6-dioxopiperidin-3-yl)-4-(oxan-4-yloxy)-3-oxo-2,3-dihydro-1H-isoindol-5-yl]methyl N-[4-(3,4-difluorophenoxy)phenyl]carbamate]	> 14000 nM	19%	19 nM	106%	>738	22 nM	119%
O=C1CCC(N2Cc3ccc(COC(=O)Nc4ccc(Oc5ccccc5Cl)cc4)c(OC4CCOCC4)c3C2=O)C(=O)N1 (centres unmarked) [Example 131, [2-(2,6-dioxopiperidin-3-yl)-4-(oxan-4-yloxy)-3-oxo-2,3-dihydro-1H-isoindol-5-yl]methyl N-[4-(2-chlorophenoxy)phenyl]carbamate]	> 14000 nM	0%	31 nM	102%	>450	28 nM	129%
O=C1CCC(N2Cc3ccc(COC(=O)Nc4ccc(Oc5ccc(F)c(F)c5)cc4F)c(OC4CCOCC4)c3C2=O)C(=O)N1 (centres unmarked) [Example 132, [2-(2,6-dioxopiperidin-3-yl)-4-(oxan-4-yloxy)-3-oxo-2,3-dihydro-1H-isoindol-5-yl]methyl N-[4-(3,4-difluorophenoxy)-2-fluorophenyl]carbamate]	> 14000 nM	10%	20 nM	107%	>693	66 nM	142%
O=C1CCC(N2Cc3ccc(COC(=O)Nc4ccc(Oc5ccc(F)cc5)cc4)c(OC4CCOCC4)c3C2=O)C(=O)N1 (centres unmarked) [Example 133, [2-(2,6-dioxopiperidin-3-yl)-4-(oxan-4-yloxy)-3-oxo-2,3-dihydro-1H-isoindol-5-yl]methyl N-[4-(4-fluorophenoxy)phenyl]carbamate]	> 14000 nM	16%	25 nM	106%	>569	42 nM	145%
O=C1CCC(N2Cc3ccc(COC(=O)Nc4ccc(Oc5ccccc5)cc4)c(OC4CCOCC4)c3C2=O)C(=O)N1 (centres unmarked) [Example 134, [2-(2,6-dioxopiperidin-3-yl)-4-(oxan-4-yloxy)-3-oxo-2,3-dihydro-1H-isoindol-5-yl]methyl N-(4-phenoxyphenyl)carbamate]	> 14000 nM	0%	13 nM	107%	>1,066	14 nM	144%
O=C1CCC(N2Cc3ccc(COC(=O)Nc4ccc(Oc5ccc(F)cc5)cc4F)c(OC4CCOCC4)c3C2=O)C(=O)N1 (centres unmarked) [Example 135, [2-(2,6-dioxopiperidin-3-yl)-4-(oxan-4-yloxy)-3-oxo-2,3-dihydro-1H-isoindol-5-yl]methyl N-[2-fluoro-4-(4-fluorophenoxy)phenyl]carbamate]	> 14000 nM	5%	17 nM	110%	>847	27 nM	148%
